Source: patent publication US10183030B2, “17α,21-diesters of cortexolone for use in the treatment of tumors” (COSMO TECHNOLOGIES LTD., priority 2014, dated 2019)
Where two headings read alike, the source gives them in different places.

What was measured:
LNCaP cells = test: LNCaP cell viability in the PSA secretion experiment; assay type: cell-based; settings: Homo sapiens, 48 hours, same cells as PSA assay
Protocol: Prostate-specific antigen, or PSA, is a protein produced by cells of the prostate gland. The PSA test measures the level of PSA in a person's blood. The blood level of PSA is often elevated in men with prostate cancer and it used as surrogate marker to test prostate cancer progression in human population. […] After 48 hours incubation with test compounds, supernatants were harvested and tested with an Elisa assay for PSA and same cells were lysed for cell viability assessment.

[1] = tested on: Panc1 (AR+) pancreatic cancer cells; test: ATP-dependent proliferation/viability assay, Panc1; assay type: cell-based; settings: Homo sapiens, read-out: IC50
Protocol: The experimental method consisted of: • 1. […] After 24 hours, 10 nM DHT (dihydrotestosterone) with or without anti-androgen compounds, or DMSO vehicle (negative control) was added to the cultures. • 3.
Each compounds was titrated from 3 uM to 200 uM.

[2] = In vitro metabolism in rat plasma; assay type: in vitro ADME; settings: 37° C.; FIG. 13
Protocol: To obtain some insights on the metabolism of CB-03-10 in human and rat plasma, a specific assay was designed. Briefly the compound was incubated at different time in human and rat plasma at 37° C. After incubation the samples were tested for presence of the intact compound by liquid chromatography.

[3] = tested on: MiaPaca-2 xenograft tumor; test: MiaPaca2 human pancreatic tumor xenograft in nude mice, subcutaneous treatment; assay type: in vivo, mouse
Protocol: The test was carried out comparing the anti-tumor activity of cortexolone 17α-benzoate at two different dosages (8.0 mg/kg, corresponding approximately at 230 μM, and 40 mg/kg, corresponding approximately at 1150 μM), versus the vehicle (i.e. 0.4% (v/v) tween 80 and 0.5% (w/v) carboxymethylcellulose in normal saline) and versus the comparator Cyproterone Acetate at two different dosages (7.4 mg/kg and 37 mg/kg).
1×10^6 MiaPaca-2 cells suspended in matrigel were subcutaneously injected into 6 week old athymic nude mice.
The treatment with the tested compounds, with the vehicle and with the comparative compound, was initiated after the tumor volume has reached 50 mm^3 after transplantation. All compounds were injected 100 μL/mouse subcutaneously of low dose solution (approximately 230 μM) or 100 μL/mouse of high dose solution (approximately 1150 μM) of cortexolone 17α-benzoate, vehicle and cyproterone acetate, respectively. Compounds and controls were administered subcutaneously daily for 28 days.
Tumors were measured every 4 days with a digital caliper.
The results are plotted in FIG. 1 as average change in tumor volume relative to the start of treatment. Tumor volume was calculated according to the formula 0.5236(r1)^2(r2) where r1<r2.
The test was carried out comparing the anti-tumor activity of cortexolone 17α-valerate-21-propionate (CB-03-10) at two different dosages (approximately 8.6 mg/kg and 43 mg/kg) versus the vehicle (i.e. 0.4% (v/v) tween 80 and 0.5% (w/v) carboxymethylcellulose in normal saline) and versus the comparator Cyproterone Acetate at two different dosages (7.4 mg/kg and 37 mg/kg).
The treatment with the tested compound, with the vehicle and with the comparative compound was initiated after the tumor has reached a volume of 50 mm^3 after implantation, injecting subcutaneously 100 μL/mouse of low dose solution (approximately 230 μM) or 100 μL/mouse of high dose solution (approximately 1150 μM) of cortexolone 17α-valerate-21-propionate (CB-03-10), vehicle and cyproterone acetate, respectively. Compounds and controls were administered subcutaneously daily for 28 days.
The results are plotted in FIG. 2 as average change in tumor volume relative to the start of treatment. Tumor volume was calculated according to the formula 0.5236(r1)^2(r2) where r1<r2.
CPA a well-known anti-androgen was used as control. Briefly 1×10^6 MiaPaca2 cells suspended in matrigel were subcutaneously (SC) injected into 6 week old male athymic nude mice. Tumors were measured every 4 days with a digital caliper. Tumor volume was calculated according to the formula: 0.5236(r1) 2(r2) where r1<r2. Treatment with CB-03-10 and controls compounds was initiated after the tumor had reached 50 mm^3. Compounds diluted in DMSO/2-hydroxypropyl b-cyclodextrin (vehicle) were injected subcutaneously (SC) daily (100 μL/mouse) at the concentration of 40 mg/Kg daily for 28 consecutive days.

Glucocorticoid Receptor = target: T1, Glucocorticoid Receptor (Homo sapiens, UniProt P04150); test: GR reporter assay, antagonist mode; assay type: cell-based; settings: FIG. 7
T1 construct: endogenous in cells; host or cells: human kidney epithelial cells
T1 sequence (P04150 1-777): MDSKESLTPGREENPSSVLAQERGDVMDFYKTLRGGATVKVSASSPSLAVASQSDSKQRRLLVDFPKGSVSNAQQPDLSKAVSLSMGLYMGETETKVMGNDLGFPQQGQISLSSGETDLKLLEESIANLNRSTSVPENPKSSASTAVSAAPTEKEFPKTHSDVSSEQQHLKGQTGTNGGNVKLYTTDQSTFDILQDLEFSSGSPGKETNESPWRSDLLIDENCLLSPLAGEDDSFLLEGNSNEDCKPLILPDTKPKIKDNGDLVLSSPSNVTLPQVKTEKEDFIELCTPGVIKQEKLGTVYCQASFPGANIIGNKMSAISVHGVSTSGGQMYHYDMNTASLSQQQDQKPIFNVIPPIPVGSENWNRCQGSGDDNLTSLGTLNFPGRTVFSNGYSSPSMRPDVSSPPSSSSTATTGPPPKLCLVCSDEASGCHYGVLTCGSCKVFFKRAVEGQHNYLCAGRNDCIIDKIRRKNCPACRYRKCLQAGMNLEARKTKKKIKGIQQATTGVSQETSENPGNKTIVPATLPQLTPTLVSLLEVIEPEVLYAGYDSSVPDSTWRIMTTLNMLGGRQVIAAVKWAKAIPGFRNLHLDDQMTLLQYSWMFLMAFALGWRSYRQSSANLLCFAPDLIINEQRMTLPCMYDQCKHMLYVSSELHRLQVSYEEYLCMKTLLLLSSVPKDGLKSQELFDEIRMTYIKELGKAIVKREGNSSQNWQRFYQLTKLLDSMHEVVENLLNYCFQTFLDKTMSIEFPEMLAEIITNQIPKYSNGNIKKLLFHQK
Protocol: The androgen and glucocorticoid hormones elicit divergent and often opposing effects in cells, tissues, and animals. […] CB-03-10 GR antagonist and agonist activities were tested in an in vitro assay. Briefly, human kidney epithelial cells were transfected with DNA construct containing GR binding sites linked to luminescent based reporter molecule. After 24 hours, cells were treated under antagonist or agonist modes. After an additional 24 hours, luminescence which is proportional to GR agonist transcriptional activity was quantitated.
Antagonist Assay was based on inhibition of luminescence induced by Dexamethasone (Dex).
The antagonist activity of CB-03-10 was compared to a known GR antagonist, Mifepristone (also called RU486) as shown in FIG. 7.

[4] = Example 22, 40 mg/Kg SC daily for 28 days

CCCCC(=O)O[C@]1(C(=O)COC(=O)CC)CC[C@H]2[C@@H]3CCC4=CC(=O)CC[C@]4(C)[C@H]3CC[C@@]21C [CB-03-10, cortexolone 17α-valerate-21-propionate]
IC50 (LNCaP cells): 11 µM | IC50 ([1]; PANC-1, 72 h, Panc1, 10 nM DHT, 3 days, Examples 3-4, Experiment 1): 66 µM | IC50 ([1]; PANC-1, Panc1, Example 7, Experiment 1): 68 µM | degradation in rat plasma [2]: degraded more rapidly in rat compared to human plasma | pancreatic tumor size increase relative to the initial size, during the treatment period ([3]; Example 22, 40 mg/Kg SC daily for 28 consecutive days): less than 5 fold | Median survival [3, 4]: 70 days | tumor size increase 14 days after treatment was stopped [3, 4]: 6 fold | pancreatic tumor size increase relative to the start of treatment ([3]; Examples 5 and 6, SC daily for 28 days, test compounds at high dose (approximately 1150 μM, 100 μL/mouse), Cyproterone Acetate treatment groups 7.4 and 37 mg/kg): less than 5 fold | GR antagonist potency relative to RU486 (Glucocorticoid Receptor): 10 times less | GR antagonist activity (Glucocorticoid Receptor; inhibition of luminescence induced by Dexamethasone): potent antagonist
